Results published in patent US20220195066A1, “ANTI-CEA IMMUNOCONJUGATES, AND USES THEREOF” (BOLT BIOTHERAPEUTICS, INC., priority 2020, published 2022).

Experiments:
[1] = biological target: T1, human TLR8 (Homo sapiens, UniProt Q9NR97); experiment: HEK Reporter Assay, HEK293 NFKB reporter cells expressing human TLR8; format: cell-based; conditions: read-out: HEK293 hTLR8 EC50
T1 construct: host or cells: HEK293 NF-kB reporter cells
T1 sequence (Q9NR97 27-1041): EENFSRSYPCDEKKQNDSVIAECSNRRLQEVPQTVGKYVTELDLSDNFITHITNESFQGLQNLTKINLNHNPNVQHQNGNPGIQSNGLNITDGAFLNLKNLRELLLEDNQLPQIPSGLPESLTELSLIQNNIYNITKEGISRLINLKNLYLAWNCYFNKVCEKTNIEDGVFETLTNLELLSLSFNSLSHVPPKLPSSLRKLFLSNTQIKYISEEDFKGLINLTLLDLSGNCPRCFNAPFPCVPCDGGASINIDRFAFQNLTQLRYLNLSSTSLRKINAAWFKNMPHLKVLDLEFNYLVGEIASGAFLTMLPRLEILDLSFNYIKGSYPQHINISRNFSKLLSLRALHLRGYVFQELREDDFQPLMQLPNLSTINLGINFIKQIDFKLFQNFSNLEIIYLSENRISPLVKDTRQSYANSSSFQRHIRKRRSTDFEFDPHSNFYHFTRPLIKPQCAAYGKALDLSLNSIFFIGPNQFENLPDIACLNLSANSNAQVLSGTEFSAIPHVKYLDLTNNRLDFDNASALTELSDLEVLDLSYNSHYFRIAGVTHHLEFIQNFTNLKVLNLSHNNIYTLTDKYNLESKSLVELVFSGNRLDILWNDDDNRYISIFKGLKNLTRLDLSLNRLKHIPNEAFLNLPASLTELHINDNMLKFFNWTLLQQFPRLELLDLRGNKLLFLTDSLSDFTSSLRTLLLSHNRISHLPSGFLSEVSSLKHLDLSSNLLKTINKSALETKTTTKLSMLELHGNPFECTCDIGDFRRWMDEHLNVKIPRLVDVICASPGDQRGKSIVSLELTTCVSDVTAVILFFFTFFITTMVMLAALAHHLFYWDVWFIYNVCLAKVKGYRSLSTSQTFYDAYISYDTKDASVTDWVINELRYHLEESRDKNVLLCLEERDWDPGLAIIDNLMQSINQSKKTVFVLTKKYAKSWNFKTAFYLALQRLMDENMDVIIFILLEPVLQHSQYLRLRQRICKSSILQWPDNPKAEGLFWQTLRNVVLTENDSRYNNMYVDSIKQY
Method: (§1) Each compound was synthesized, purified, and characterized by mass spectrometry and shown to have the mass indicated. Additional experimental procedures are found in the Examples. Activity against Human Embryonic Kidney (HEK) 293 NFKB reporter cells expressing human TLR7 or human TLR8 was measured according to Example 202.
(§2) Human Embryonic Kidney (HEK293) reporter cells expressing human TLR7 or human TLR8 (InvivoGen, San Diego Calif.), were used with vendor protocols for cellular propagation and experimentation. Briefly, cells were grown to 80-85% confluence at 5% CO2 in DMEM supplemented with 10% FBS, ZEOCIN™, and Blasticidin. Cells were then seeded in 96-well flat plates at 4×10^4 cells/well with substrate containing HEK detection medium and immunostimulatory molecules.

[2] = biological target: T2, human TLR7 (Homo sapiens, UniProt Q9NYK1); experiment: HEK Reporter Assay, HEK293 NFKB reporter cells expressing human TLR7; format: cell-based; conditions: read-out: HEK293 hTLR7 EC50
T2 construct: host or cells: HEK293 NF-kB reporter cells
T2 sequence (Q9NYK1 27-1049): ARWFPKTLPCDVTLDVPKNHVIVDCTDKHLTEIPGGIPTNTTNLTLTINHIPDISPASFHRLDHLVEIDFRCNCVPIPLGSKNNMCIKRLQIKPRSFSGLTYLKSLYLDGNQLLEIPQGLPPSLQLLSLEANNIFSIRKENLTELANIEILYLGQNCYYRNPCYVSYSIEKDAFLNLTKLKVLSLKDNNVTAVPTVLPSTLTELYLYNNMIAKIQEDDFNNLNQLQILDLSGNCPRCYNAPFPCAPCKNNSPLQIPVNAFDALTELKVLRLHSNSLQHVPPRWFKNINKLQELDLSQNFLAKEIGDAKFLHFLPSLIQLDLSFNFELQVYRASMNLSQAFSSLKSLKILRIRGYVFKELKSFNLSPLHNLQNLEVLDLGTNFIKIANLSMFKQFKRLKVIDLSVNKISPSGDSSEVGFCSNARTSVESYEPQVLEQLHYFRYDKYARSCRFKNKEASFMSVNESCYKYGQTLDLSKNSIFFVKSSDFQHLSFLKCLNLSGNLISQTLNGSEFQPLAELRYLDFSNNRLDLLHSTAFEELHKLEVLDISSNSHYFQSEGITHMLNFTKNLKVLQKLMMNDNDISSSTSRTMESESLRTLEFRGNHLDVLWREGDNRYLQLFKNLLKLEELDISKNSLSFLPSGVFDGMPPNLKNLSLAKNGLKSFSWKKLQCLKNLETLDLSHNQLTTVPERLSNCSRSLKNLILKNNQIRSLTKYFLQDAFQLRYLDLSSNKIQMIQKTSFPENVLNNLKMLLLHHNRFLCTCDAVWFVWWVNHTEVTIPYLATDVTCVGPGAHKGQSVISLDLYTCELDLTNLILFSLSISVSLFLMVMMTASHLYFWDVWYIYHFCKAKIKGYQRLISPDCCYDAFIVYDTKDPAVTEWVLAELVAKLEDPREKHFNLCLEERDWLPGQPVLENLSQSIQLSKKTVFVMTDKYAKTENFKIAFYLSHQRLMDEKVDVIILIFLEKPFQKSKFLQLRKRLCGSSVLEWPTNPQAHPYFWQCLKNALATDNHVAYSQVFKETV
Method: as §1, §2

Row | Compound | EC50 [1] | EC50 [2]
1 | CCCN(OCCNC(=O)OC(C)C)C(=O)C1=Cc2ccc(-c3cncc(S(=O)(=O)N4CC(CN)C4)c3)cc2N=C(N)C1 [HxBz-35] | 0.174 µM | 0.684 µM
2 | CCCN(OCC)C(=O)C1=Cc2ccc(-c3ccc(CN)nc3)cc2N=C(N)C1 [HxBz-36, 2-amino-8-[6-(aminomethyl)-3-pyridyl]-N-ethoxy-N-propyl-3H-1-benzazepine-4-carboxamide] | 0.054 µM | 0.439 µM
3 | CCCN(CCCNC(=O)OC1CCC1)C(=O)C1=Cc2ccc(-c3ccc(CN)nc3)cc2N=C(N)C1 [HxBz-38] | 0.153 µM | 0.056 µM
4 | CCCN(OCC)C(=O)C1=Cc2ccc(-c3cncc(CN)c3)cc2N=C(N)C1 [HxBz-39, 2-amino-8-(5-(aminomethyl)pyridin-3-yl)-N-ethoxy-N-propyl-3H-benzo[b]azepine-4-carboxamide] | 0.065 µM | 1.78 µM
5 | CCCN(CCCNC(=O)OC1CCC1)C(=O)C1=Cc2ccc(-c3cncc(CN)c3)cc2N=C(N)C1 [HxBz-40] | 0.755 µM | 0.357 µM
6 | CCCN(OCc1ccn[nH]1)C(=O)C1=Cc2ccc(-c3cnc(CN)nc3)cc2N=C(N)C1 [HxBz-41, 2-amino-8-[2-(aminomethyl)pyrimidin-5-yl]-N-propyl-N-(1H-pyrazol-5-ylmethoxy)-3H-1-benzazepine-4-carboxamide] | 0.128 µM | 3.93 µM
7 | CCCN(CCCOC(=O)NC1CCC1)C(=O)C1=Cc2ccc(-c3cnc(CN)nc3)cc2N=C(N)C1 [HxBz-45, 3-[[2-amino-8-[2-(aminomethyl)pyrimidin-5-yl]-3H-1-benzazepine-4-carbonyl]-propyl-amino]propyl N-cyclobutylcarbamate] | 0.325 µM | 0.825 µM
8 | CCCN(OCCNC(=O)OC1CCC1)C(=O)C1=Cc2ccc(-c3ccc(CN)nc3)cc2N=C(N)C1 [HxBz-47] | 0.012 µM | 0.035 µM
